Measured values taken from patent publication US20250241926A1, “HETEROCYCLIC COMPOUNDS FOR USE IN THE TREATMENT OF CANCER” (ARTIOS PHARMA LIMITED, priority 2021, published 2025).
Where two headings read alike, the source gives them in different places.

Target: T1, Human Polθ polymerase domain (aa1820-2590) (Homo sapiens, UniProt O75417)
T1 construct: Human Polθ polymerase domain (aa1820-2590) was expressed in E. Coli; made in house; host or cells: E. coli
T1 sequence (O75417 1820-2590): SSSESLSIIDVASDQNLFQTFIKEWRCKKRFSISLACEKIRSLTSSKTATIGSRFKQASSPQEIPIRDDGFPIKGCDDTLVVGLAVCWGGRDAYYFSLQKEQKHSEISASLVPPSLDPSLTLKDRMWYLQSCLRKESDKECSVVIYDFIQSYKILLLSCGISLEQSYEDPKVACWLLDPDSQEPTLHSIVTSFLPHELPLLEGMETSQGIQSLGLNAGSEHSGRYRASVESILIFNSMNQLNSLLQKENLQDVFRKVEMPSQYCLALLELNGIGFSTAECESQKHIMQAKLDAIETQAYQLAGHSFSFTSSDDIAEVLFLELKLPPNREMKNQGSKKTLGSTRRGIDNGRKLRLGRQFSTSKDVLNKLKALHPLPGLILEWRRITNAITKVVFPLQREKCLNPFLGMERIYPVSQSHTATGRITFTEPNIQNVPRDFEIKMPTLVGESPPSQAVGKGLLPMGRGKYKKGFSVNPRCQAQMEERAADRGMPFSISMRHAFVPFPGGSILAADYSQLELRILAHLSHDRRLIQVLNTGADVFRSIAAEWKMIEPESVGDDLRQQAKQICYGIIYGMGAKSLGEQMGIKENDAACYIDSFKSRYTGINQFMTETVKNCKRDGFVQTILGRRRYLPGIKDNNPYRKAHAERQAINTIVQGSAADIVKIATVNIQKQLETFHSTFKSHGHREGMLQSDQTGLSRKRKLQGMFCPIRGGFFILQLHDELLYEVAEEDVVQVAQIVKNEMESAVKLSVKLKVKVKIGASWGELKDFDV
Assay: Polθ Polymerase Domain Kinact/Kl Assay (PicoGreen)
Type: biochemical
Conditions: covalent inhibitors, kobs vs [I] fit, 0.8 nM Polθ, 100 nM DNA substrate
Experimental: Polθ Polymerase Domain Kinact/Kl Assay
A PicoGreen assay was used to measure the Kinact and Kl values of covalent compounds that inhibit the activity of Polθ in vitro.
Human Polθ polymerase domain (aa1820-2590) was expressed in E. Coli, purified, aliquoted and stored at −80° C. until required. Polθ substrate was generated from a 1.2:1 mix of DNA II Short to DNA II Long to give a final concentration of […] substrate in annealing buffer (20 mM Tris pH 7.5, 50 mM NaCl). The substrate was heated in 50 mL aliquots to 95° C. in a heating block for 5 min before the heating block switched off, the reaction left to cool to rt and stored at −20° C. until required.
Assay measurements were performed with 1× buffer comprising 25 mM Tris pH 7.5, 12.5 mM NaCl, […], 5% (v/v) glycerol, 0.01% v/v Triton x-100, 0.1 mg/ml BSA, 1 mM DTT. Test compounds were prepared by dilution in 100% DMSO to give a 12 μM intermediate stock of each (100× final top concentration). 100 nL of 23× 1:1.5-fold serial dilutions and a DMSO only control were dispensed using the Tecan dispenser into Greiner 384 well black low volume plates (product code 784076). DMSO concentration was maintained at 1% of the final assay volume by back filling with DMSO.
2× Working stock of substrate (200 nM of DNA substrate and […] dNTPs) and enzyme (1.4 nM Polθ) were made up in assay buffer. 5 μL/well of both enzyme and substrate 2× solutions were dispensed using a Tempest dispenser (Formulatrix) into assay plates that had been pre-dispensed with compound to give a final assay concentration of 100 nM DNA substrate, […] dNTPs and 0.8 nM Polθ. To stop the reaction, […] of a solution containing 25 mM Tris-HCl pH 7.5 and 20 mM EDTA was added at […] (t=0, 2.5, 5, 7.5, 10, 12.5, 15, 20, 25, 30, 35, 40, 45, 50, 55 and 60 min) using the Tempest's time delay function. The plates were covered during the time course to prevent evaporation. After completing the assay, 5 μL of detection reagent (25 mM Tris-HCl pH 7.5 and 2.5% (v/v) PicoGreen) was dispensed into the wells using a Tempest liquid handler (Formulatrix) and plates subsequently read on the CLARIOstar Plus (BMG Labtech) using the default optical settings for fluorescein and the auto gain/focus settings.
All data analysis was carried out using GraphPad Prism V. 8 (GraphPad Software Inc, San Diego, CA) Time course data for each inhibitor concentration was fitted to equation 1 to determine kobs values.^1 Any time points where the control (DMSO alone) reaction was no longer linear were excluded from the analysis.
A secondary plot of kobs vs [I] is used to determine the Kinact and Kl parameters (for a 2-step covalent inhibitor) by fitting to equation 2.1
[formula] • 1) Evaluation of Enzyme Inhibitors in Drug Discovery (Ch9), R. A Copeland, Wiley, 2nd Edition 2013.

Molecule	kinact/KI (read-out: Kinact/KI)	kinact/KI
C=CC(=O)N1CC2(CN(CCN3CC[C@H](Nc4nc(C)cc(C(F)(F)F)c4C#N)C(=O)N(C)c4cccc(F)c43)C[C@@H]3COCCN32)C1 [Example 61, 2-(((S)-6-(2-((R)-1-A cryloyltetrahydro-1′H-spiro[azetidine-3,6′-pyrazino[2,1-c][1,4]oxazin]-8′(7′H)-yl)ethyl)-7-fluoro-1-methyl-2-oxo-1,2,3,4,5,6-hexahydrobenzo[b][1,4]diazocin-3-yl)amino)-6-methyl-4-(trifluoromethyl)nicotinonitrile]	500000 M⁻¹ s⁻¹	–
2-(((S)-6-(2-((R)-4-(1- Acryloylazetidin-3-yl)-2- methylpiperazin-1-yl)eth- yl)-7-fluoro-1-methyl-2- oxo-1,2,3,4,5,6-hexahydro- benzo[b][1,4]diazocin-3- yl)amino)-6-methyl-4- (trifluoromethyl)nicotino- nitrile [Example 15]	–	280000 M⁻¹ s⁻¹
C=CC(=O)N1CC(N2CCN(CCN3CC[C@H](Nc4nc(C)cc(C(F)(F)F)c4C#N)C(=O)N(C)c4cccc(F)c43)C[C@@H]2C)C1 [Example 17, 2-(((S)-6-(2-((S)-4-(1-Acryloylazetidin-3-yl)-3-methylpiperazin-1-yl)-ethyl)-7-fluoro-1-methyl-2-oxo-1,2,3,4,5,6-hexa-hydrobenzo[b][1,4]diazocin-3-yl)amino)-6-methyl-4-(trifluorometh-yl)nicotinonitrile]	570000 M⁻¹ s⁻¹	–
Cc1cc(C(F)(F)F)c(C#N)c(N[C@H]2CCN(CCN3CCOC4(C3)CN(C(=O)/C=C/CN(C)C)C4)c3c(F)cccc3N(C)C2=O)n1 [Example 1, (S,E)-2-((6-(2-(2-(4-(Dimethylamino)but-2-enoyl)-5-oxa-2,8-diazaspiro[3.5]nonan-8-yl)ethyl)-7-fluoro-1-methyl-2-oxo-1,2,3,4,5,6-hexahydrobenzo[b][1,4]diazocin-3-yl)amino)-6-methyl-4-(trifluoromethyl)nicotinonitrile]	3.1e+06 M⁻¹ s⁻¹	–
Cc1cc(C(F)(F)F)c(C#N)c(N[C@H]2CCN(CCOC3CN(C(=O)/C=C/CN(C)C)C3)c3ccccc3N(C)C2=O)n1 [Example 50, (S,E)-2-((6-(2-((1-(4-(Dimethylamino)but-2-enoyl)azetidin-3-yl)oxy)ethyl)-1-methyl-2-oxo-1,2,3,4,5,6-hexahydrobenzo[b][1,4]diazocin-3-yl)amino)-6-methyl-4-(trifluoromethyl)nicotinonitrile]	110000 M⁻¹ s⁻¹	–
Cc1cc(C(F)(F)F)c(C#N)c(N[C@H]2CCN(CCN3CCOC4(C3)CN(C(=O)/C=C/CN(C)C)C4)c3ccccc3N(C)C2=O)n1 [Example 3, (S,E)-2-((6-(2-(2-(4-(Dimethylamino)but-2-enoyl)-5-oxa-2,8-diazaspiro[3.5]nonan-8-yl)ethyl)-1-methyl-2-oxo-1,2,3,4,5,6-hexahydrobenzo[b][1,4]diazocin-3-yl)amino)-6-methyl-4-(trifluoromethyl)nicotinonitrile]	1.1e+06 M⁻¹ s⁻¹	–
C=CC(=O)N1CC2(CN(CCN3CC[C@H](Nc4nc(C)cc(C(F)(F)F)c4C#N)C(=O)N(C)c4ccc(Cl)cc43)C2)C1 [Example 7, (S)-2-((6-(2-(6-Acryloyl-2,6-diazaspiro[3.3]heptan-2-yl)ethyl)-8-chloro-1-methyl-2-oxo-1,2,3,4,5,6-hexahydrobenzo[b][1,4]diazocin-3-yl)amino)-6-methyl-4-(trifluoromethyl)nicotinonitrile]	460000 M⁻¹ s⁻¹	–
C=CC(=O)N1CC(c2nnc(CN3CC[C@H](Nc4nc(C)cc(C(F)(F)F)c4C#N)C(=O)N(C)c4cccc(F)c43)[nH]2)C1 [Example 68, (S)-2-((6-((5-(1-Acryloylazetidin-3-yl)-4H-1,2,4-triazol-3-yl)methyl)-7-fluoro-1-methyl-2-oxo-1,2,3,4,5,6-hexahydrobenzo[b][1,4]diazocin-3-yl)amino)-6-methyl-4-(trifluoromethyl)nicotinonitrile]	130000 M⁻¹ s⁻¹	–
Cc1cc(C(F)(F)F)c(C#N)c(N[C@H]2CCN(CCCN3CCN(C(=O)/C=C/CN(C)C)CC3)c3cc(F)ccc3N(C)C2=O)n1 [Example 39, (S,E)-2-((6-(3-(4-(4-(Dimethylamino)but-2-enoyl)piperazin-1-yl)propyl)-8-fluoro-1-methyl-2-oxo-1,2,3,4,5,6-hexahydrobenzo[b][1,4]diazocin-3-yl)amino)-6-methyl-4-(trifluoromethyl)nicotinonitrile]	1e+06 M⁻¹ s⁻¹	–
C#CCN(C)C/C=C/C(=O)N1CC(OCCCN2CC[C@H](Nc3nc(C)cc(C(F)(F)F)c3C#N)C(=O)N(C)c3cccc(F)c32)C1 [Example 57, (S,E)-2-((7-Fluoro-1-methyl-6-(3-((1-(4-(methyl(prop-2-yn-1-yl)amino)but-2-enoyl)azetidin-3-yl)oxy)propyl)-2-oxo-1,2,3,4,5,6-hexahydrobenzo[b][1,4]diazocin-3-yl)amino)-6-methyl-4-(trifluoromethyl)nicotinonitrile]	300000 M⁻¹ s⁻¹	–
Cc1cc(C(F)(F)F)c(C#N)c(N[C@H]2CCN(C[C@@H]3CN(C4CN(C(=O)/C=C/CN(C)C)C4)CCO3)c3c(F)cccc3N(C)C2=O)n1 [Example 59, 2-(((S)-6-(((S)-4-(1-((E)-4-(Dimethylamino)but-2-enoyl)azetidin-3-yl)morpholin-2-yl)methyl)-7-fluoro-1-methyl-2-oxo-1,2,3,4,5,6-hexahydrobenzo[b][1,4]diazocin-3-yl)amino)-6-methyl-4-(trifluoromethyl)nicotinonitrile]	120000 M⁻¹ s⁻¹	–
Cc1cc(C(F)(F)F)c(C#N)c(N[C@H]2CCN(CC(O)CN3CCN(C(=O)/C=C/CN(C)C)CC3)c3c(F)cccc3N(C)C2=O)n1 (single isomer, unassigned) [Example 32B]	1e+06 M⁻¹ s⁻¹	–
Cc1cc(C(F)(F)F)c(C#N)c(N[C@H]2CCN(CCN3CCOC4(CCN(C(=O)/C=C/CN(C)C)C4)C3)c3c(F)cccc3N(C)C2=O)n1 (stereo partly drawn) [Example 2, 2-(((S)-6-(2-(2-((E)-4-(Dimethylamino)but-2-enoyl)-6-oxa-2,9-diazaspiro[4.5]decan-9-yl)ethyl)-7-fluoro-1-methyl-2-oxo-1,2,3,4,5,6-hexahydrobenzo[b][1,4]diazocin-3-yl)amino)-6-methyl-4-(trifluoromethyl)nicotinonitrile]	510000 M⁻¹ s⁻¹	–
2-(((S)-6-(2-((1R,4R)-5- (1-Acryloylazetidin-3-yl)- 2,5-diazabicyclo[2.2.1] heptan-2-yl)ethyl)-7- fluoro-1-methyl-2-oxo- 1,2,3,4,5,6-hexahydro- benzo[b][1,4]diazocin-3- yl)amino)-6-methyl-4- (trifluoromethyl)nicotino- nitrile [Example 18]	–	230000 M⁻¹ s⁻¹
